Measurements published in ChEMBL document CHEMBL1130655, “Nonpeptide oxytocin antagonists: potent, orally bioavailable analogs of L-371,257 containing a 1-R-(pyridyl)ethyl ether terminus” (Bioorg Med Chem Lett, 1998).
pKi: −log10 of the molar value.

Assays:
Oxytocin receptor [1] = target: T1, Oxytocin receptor (Homo sapiens, UniProt P30559); assay: Binding affinity against cloned human oxytocin receptor from human embryonic kidney cells; assay type: cell-based
T1 sequence (P30559 whole entry): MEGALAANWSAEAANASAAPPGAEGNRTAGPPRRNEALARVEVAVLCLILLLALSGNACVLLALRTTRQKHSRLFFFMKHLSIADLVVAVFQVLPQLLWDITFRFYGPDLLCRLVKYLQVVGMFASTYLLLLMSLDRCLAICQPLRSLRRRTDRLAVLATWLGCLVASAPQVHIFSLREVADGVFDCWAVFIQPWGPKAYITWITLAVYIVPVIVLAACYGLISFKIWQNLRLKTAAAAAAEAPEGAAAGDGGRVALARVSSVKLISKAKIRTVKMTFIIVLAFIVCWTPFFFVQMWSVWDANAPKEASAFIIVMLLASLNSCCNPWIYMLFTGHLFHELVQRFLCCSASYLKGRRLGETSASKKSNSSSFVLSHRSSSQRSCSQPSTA

[2] = Half life period after 3 mg/kg iv administration in rat; assay type: ADME, organism-based; parameters: dose 3 mg/kg, route intravenous; details: in vivo
Rattus norvegicus [3] = organism: Rattus norvegicus; assay: Compound was evaluated for its ability to antagonize rat OT-induced uterine contractile response in the vehicle treated group by 50%; assay type: functional
Oxytocin receptor [4] = target: T2, Oxytocin receptor (Rattus norvegicus, UniProt P70536); assay: Binding affinity against oxytocin receptor (rOTr) in DES pretreated rat uterine
T2 sequence (P70536 whole entry): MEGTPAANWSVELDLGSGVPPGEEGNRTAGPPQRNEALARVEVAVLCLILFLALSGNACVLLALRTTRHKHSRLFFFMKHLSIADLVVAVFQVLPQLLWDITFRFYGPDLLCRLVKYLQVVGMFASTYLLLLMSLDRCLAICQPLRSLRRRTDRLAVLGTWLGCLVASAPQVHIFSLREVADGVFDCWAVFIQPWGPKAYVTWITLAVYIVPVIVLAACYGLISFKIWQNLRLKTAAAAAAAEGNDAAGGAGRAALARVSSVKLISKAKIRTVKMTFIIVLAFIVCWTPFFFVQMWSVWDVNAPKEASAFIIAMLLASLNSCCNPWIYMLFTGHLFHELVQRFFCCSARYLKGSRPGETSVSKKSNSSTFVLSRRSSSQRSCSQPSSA

[5] = Half life period after 3 mg/kg iv administration in the rat; assay type: ADME, organism-based; parameters: dose 3 mg/kg, route intravenous; details: in vivo
[6] = Oral bioavailability in rat; assay type: ADME, organism-based; details: in vivo
Rattus norvegicus [7] = assay: Maximum plasma concentration after 20 mg/kg oral administration in rat; assay type: ADME, organism-based; parameters: dose 20 mg/kg, route oral; details: in vivo

SMILES: CCC(Oc1ccc(C(=O)N2CCC(N3C(=O)OCc4ccccc43)CC2)c(OC)c1)c1ccccc1 (stereo not given)
- pKi (Oxytocin receptor [1]): 7.24

SMILES: COc1cc(OC(C)c2ccccc2)ccc1C(=O)N1CCC(N2C(=O)OCc3ccccc32)CC1 (stereo not given)
- half-life [2]: < 30 min

SMILES: CCOc1ccc(C(=O)N2CCC(N3C(=O)OCc4ccccc43)CC2)c(OC)c1
- pKi (Oxytocin receptor [1]): 7.82

SMILES: COc1cc(OC(C)C)ccc1C(=O)N1CCC(N2C(=O)OCc3ccccc32)CC1
- pKi (Oxytocin receptor [1]): 7.77

SMILES: COc1cc(OC(C)c2cccnc2)ccc1C(=O)N1CCC(N2C(=O)OCc3ccccc32)CC1 (stereo not given)
- AD50 (Rattus norvegicus [3]): 1.2 mg/kg

SMILES: COc1cc(O[C@H](C)c2cc[n+]([O-])cc2)c(F)cc1C(=O)N1CCC(N2C(=O)OCc3ccccc32)CC1
- pKi (Oxytocin receptor [4]): 8.00
- pKi (Oxytocin receptor [1]): 8.13
- AD50 (Rattus norvegicus [3]): 0.78 mg/kg

SMILES: COc1cc(OC2CCN(C(C)=O)CC2)ccc1C(=O)N1CCC(N2C(=O)OCc3ccccc32)CC1
- pKi (Oxytocin receptor [1]): 8.03
- half-life [5]: ~30 min
- bioavailability [6]: 39%
- Cmax (Rattus norvegicus [7]): 3.3 uM equiv
- AD50 (Rattus norvegicus [3]): 0.55 mg/kg

SMILES: COc1ccc(C(=O)N2CCC(N3C(=O)OCc4ccccc43)CC2)c(OC)c1
- pKi (Oxytocin receptor [4]): 6.92
- pKi (Oxytocin receptor [1]): 7.06
